According to patent US7179926B2, “Aryloxyalkylamine NK-1/SSRI inhibitors” (Bristol-Myers Squibb Company, priority 2004, dated 2007):

Key:
[1] = molecular target: T1, neurokinin-1 (NK-1) receptor (Homo sapiens, UniProt P25103); test: NK-1 Binding assay ([125I] Substance P competition, U373 cell membranes); conditions: Bolton Hunter labeled [125I] Substance P, 30 min at 20° C.
T1 construct: endogenously expresses the neurokinin-1 (NK-1) receptor; endogenous in cells; host or cells: U373 human glioblastoma-astrocytoma cells (membranes)
T1 sequence (P25103 whole entry): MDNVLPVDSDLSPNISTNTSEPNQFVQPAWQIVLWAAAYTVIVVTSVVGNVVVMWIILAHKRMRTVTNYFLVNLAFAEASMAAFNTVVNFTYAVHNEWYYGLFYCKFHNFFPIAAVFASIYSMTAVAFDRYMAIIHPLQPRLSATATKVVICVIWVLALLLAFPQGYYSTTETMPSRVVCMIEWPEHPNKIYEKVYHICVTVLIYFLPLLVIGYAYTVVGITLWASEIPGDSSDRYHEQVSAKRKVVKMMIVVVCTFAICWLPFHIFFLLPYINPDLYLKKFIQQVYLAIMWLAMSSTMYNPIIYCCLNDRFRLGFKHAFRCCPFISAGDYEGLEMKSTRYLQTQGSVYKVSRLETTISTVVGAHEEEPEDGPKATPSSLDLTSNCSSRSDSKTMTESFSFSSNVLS
Procedure: NK-1 Binding assay. U373 cells, a human glioblastoma-astrocytoma cell line that endogenously expresses the neurokinin-1 (NK-1) receptor, were grown in a monolayer culture at 37° C. in 5% CO2 and fed with Minimum Essential Medium (MEM) supplemented with 10% fetal bovine serum. Membranes were prepared as follows: Cells were washed twice with ice-cold phosphate-buffered saline (pH 7.4) and then incubated for 5–10 minutes with ice-cold 10 mM Tris buffer (pH 7.4) containing 5 mM EDTA. Cells were removed from plates, homogenized, and centrifuged at 32,000×g for 20 minutes. The resulting supernatant was discarded, and the pellet resuspended by homogenization in 50 mM Tris buffer (pH 7.4) containing 1 mM EDTA and centrifuged at 32,000×g for 20 minutes. The resulting supernatant was discarded, and the pellet resuspended by homogenization in NK-1 binding assay buffer (50 mM Tris-HCL (pH 7.4), 3 mM MnCl2, 200 μg/ml BSA, 5 μg/ml chymostatin, 40 μg/ml bacitracin and 4 μg/ml leupeptin).
On the day of an experiment the membrane preparation was thawed, homogenized and diluted with NK-1 binding assay buffer to the appropriate concentration. Competition binding assays were performed in 96 well plate format by incubating membranes (5–10 μg/well) with Bolton Hunter labeled [^125I] Substance P, at a concentration of […], and concentrations of drugs ranging from 10000 to 0.01 nM. Samples were incubated for 30 min at 20° C. then filtered through GF/B glass fiber filters (pretreated with 1% polyethyleneimine and 0.3% Triton X-100) using a Brandel cell harvester. The filters were then washed with 10 ml ice cold 50 mM Tris-HCL (pH 7.4) containing 3 mM MgCl2. Non-specific was defined in the presence of 2 μM L-733,060 (a non-peptide NK-1 antagonist). The amount of radioligand bound in the presence and absence of competitor was analyzed by plotting (−)log drug concentration versus the amount of radioligand specifically bound. The midpoint of the displacement curve (IC50, nM), signifies the potency. Ki values can be calculated using the method of Cheng and Prusoff (Cheng and Prusoff, Biochemical Pharmacology, Vol 22, pp. 3099–3108, Pergamon Press (1973)).

[2] = molecular target: T2, human serotonin transporters (Homo sapiens, UniProt P31645); test: Serotonin transporter binding assay ([3H]-citalopram competition, HEK-hSERT cell membranes); conditions: 1 nM [3H]-citalopram, 1 hr at 25° C., read-out: SERT IC50
T2 construct: expressed in transfected cells
T2 sequence (P31645 whole entry): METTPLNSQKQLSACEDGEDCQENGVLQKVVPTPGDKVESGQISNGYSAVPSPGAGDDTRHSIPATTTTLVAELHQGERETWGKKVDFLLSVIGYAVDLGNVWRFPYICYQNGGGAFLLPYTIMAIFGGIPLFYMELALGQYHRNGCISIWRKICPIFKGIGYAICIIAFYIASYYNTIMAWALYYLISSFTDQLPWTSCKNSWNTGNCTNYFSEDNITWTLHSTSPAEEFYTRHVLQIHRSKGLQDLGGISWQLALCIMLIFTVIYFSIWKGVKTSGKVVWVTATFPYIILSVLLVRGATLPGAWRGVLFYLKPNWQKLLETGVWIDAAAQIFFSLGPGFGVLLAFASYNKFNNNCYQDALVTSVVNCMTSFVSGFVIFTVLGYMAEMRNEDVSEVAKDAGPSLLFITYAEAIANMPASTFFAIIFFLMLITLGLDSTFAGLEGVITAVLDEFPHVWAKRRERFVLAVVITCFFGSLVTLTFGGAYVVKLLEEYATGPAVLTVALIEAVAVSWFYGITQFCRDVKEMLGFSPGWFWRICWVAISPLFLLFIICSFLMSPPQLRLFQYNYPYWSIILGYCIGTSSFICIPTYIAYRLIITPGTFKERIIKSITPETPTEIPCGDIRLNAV
Procedure: Serotonin transporter binding assay. HEK-293 cells that stably express human serotonin transporters (HEK-hSERT cells) were grown at 37° C. in 5% CO2 as a monolayer in medium consisting of EMEM supplemented with 10% fetal bovine serum and G418 sulfate (500 μg/ml). To prepare membranes for radioligand binding experiments, cells were rinsed twice with phosphate-buffered saline (138 mM NaCl, 4.1 mM KCl, 5.1 mM Na2PO4, 1.5 mM KH2PO4, 11.1 mM glucose, pH 7.4). Cells were transferred from plates to polypropylene tubes (16×100 mm), centrifuged at 1,200×g for 5 min and were frozen at −80° C. until assay. Following centrifugation, pellets were resuspended by homogenization in buffer consisting of 50 mM Tris (pH 7.7 at 25° C.), 120 mM NaCl and 5 mM KCl and then centrifuged at 32,000×g for 10 min. Following centrifugation, supernatants were discarded and pellets were resuspended in buffer consisting of 50 mM Tris (pH 7.4 at 25° C.), 150 mM NaCl and 5 mM KCl. Membrane homogenates (200 μl/plate) were incubated with 1 nM [^3H]-citalopram (specific activity=85 Ci/mmol) and increasing concentrations of test compounds for 1 hr at 25° C. in a total volume of 250 μl. The assay buffer consisted of 50 mM Tris (pH 7.4 at 25° C.), 120 mM NaCl and 5 mM KCl (pH 7.4 with conc. HCl). Plates were incubated for 1 hr at 25° C., then filtered through 0.5% PEI treated Whatman GF/B filters using a Brandel cell harvester. Filters were washed three times with 3 ml of ice-cold tris wash buffer. Non-specific binding was defined with 10 μM fluoxetine. Amount of radioligand bound in the presence and absence of competitor was analyzed by plotting (−)log drug concentration versus the amount of radioligand specifically bound. The midpoint of the displacement curve (IC50, nM), signifies the potency. Ki values can be calculated using the method of Cheng and Prusoff (Cheng and Prusoff, Biochemical Pharmacology, Vol 22, pp. 3099–3108, Pergamon Press (1973)).

| IC50 [1] | IC50 [2] | SMILES |
| --- | --- | --- |
| 100 to 300 nM | 1 to 100 nM | COc1ccc(C(O)(CCN)COCc2cc(C(F)(F)F)cc(C(F)(F)F)c2)c(C)c1 (centres unmarked) [Example 28, 1-(3,5-bis(trifluoromethyl)benzyloxy)-4-amino-2-(4-methoxy-2-methylphenyl)butan-2-ol] |
| 1 to 100 nM | 1 to 100 nM | Cc1ccc(F)cc1C(O)(CCN)COCc1cc(C(F)(F)F)cc(C(F)(F)F)c1 (centres unmarked) [Example 29, 1-(3,5-bis(trifluoromethyl)benzyloxy)-4-amino-2-(5-fluoro-2-methylphenyl)butan-2-ol] |
| 1 to 100 nM | 1 to 100 nM | Cc1ccc(C(O)(CCN)COCc2cc(C(F)(F)F)cc(C(F)(F)F)c2)c(C)c1 (centres unmarked) [Example 30, 1-(3,5-bis(trifluoromethyl)benzyloxy)-4-amino-2-(2,4-dimethylphenyl)butan-2-ol] |
| 1 to 100 nM | 1 to 100 nM | Cc1cc(F)ccc1C(O)(CCN)COCc1cc(C(F)(F)F)cc(C(F)(F)F)c1 (centres unmarked) [Example 31, 1-(3,5-bis(trifluoromethyl)benzyloxy)-4-amino-2-(4-fluoro-2-methylphenyl)butan-2-ol] |
| 1 to 100 nM | 1 to 100 nM | Cc1ccc(C(O)(CCN)COCc2cc(C(F)(F)F)cc(C(F)(F)F)c2)cc1C (centres unmarked) [Example 32, 1-(3,5-bis(trifluoromethyl)benzyloxy)-4-amino-2-(3,4-dimethylphenyl)butan-2-ol] |
| 1 to 100 nM | 1 to 100 nM | Cc1ccc(C(O)(CCN)COCc2cc(C(F)(F)F)cc(C(F)(F)F)c2)cc1F (centres unmarked) [Example 33, 1-(3,5-bis(trifluoromethyl)benzyloxy)-4-amino-2-(3-fluoro-4-methylphenyl)butan-2-ol] |
| 1 to 100 nM | 1 to 100 nM | NCCC(O)(COCc1cc(C(F)(F)F)cc(C(F)(F)F)c1)c1cccc2ccccc12 (centres unmarked) [Example 34, 1-(3,5-bis(trifluoromethyl)benzyloxy)-4-amino-2-(naphthalen-1-yl)butan-2-ol] |
| > 300 nM | 100 to 300 nM | CCCc1ccc(C(O)(CCN)COCc2cc(C(F)(F)F)cc(C(F)(F)F)c2)cc1 (centres unmarked) [Example 35, 1-(3,5-bis(trifluoromethyl)benzyloxy)-4-amino-2-(4-propylphenyl)butan-2-ol] |
| 1 to 100 nM | 1 to 100 nM | Cc1c(F)cccc1C(O)(CCN)COCc1cc(C(F)(F)F)cc(C(F)(F)F)c1 (centres unmarked) [Example 36, 1-(3,5-bis(trifluoromethyl)benzyloxy)-4-amino-2-(3-fluoro-2-methylphenyl)butan-2-ol] |
| 1 to 100 nM | 1 to 100 nM | Cc1ccc(C)c(C(O)(CCN)COCc2cc(C(F)(F)F)cc(C(F)(F)F)c2)c1 (centres unmarked) [Example 37, 1-(3,5-bis(trifluoromethyl)benzyloxy)-4-amino-2-(2,5-dimethylphenyl)butan-2-ol] |
| 100 to 300 nM | 1 to 100 nM | CCc1ccc(C(O)(CCN)COCc2cc(C(F)(F)F)cc(C(F)(F)F)c2)cc1 (centres unmarked) [Example 38, 1-(3,5-bis(trifluoromethyl)benzyloxy)-4-amino-2-(4-ethylphenyl)butan-2-ol] |
| 100 to 300 nM | 1 to 100 nM | COc1ccc(C(O)(CCN)COCc2cc(C(F)(F)F)cc(C(F)(F)F)c2)cc1OC (centres unmarked) [Example 39, 1-(3,5-bis(trifluoromethyl)benzyloxy)-4-amino-2-(3,4-dimethoxyphenyl)butan-2-ol] |
| 1 to 100 nM | 1 to 100 nM | Cc1cc(Cl)ccc1C(O)(CCN)COCc1cc(C(F)(F)F)cc(C(F)(F)F)c1 (centres unmarked) [Example 40, 1-(3,5-bis(trifluoromethyl)benzyloxy)-4-amino-2-(4-chloro-2-methylphenyl)butan-2-ol] |
| 1 to 100 nM | 1 to 100 nM | NCCC(O)(COCc1cc(C(F)(F)F)cc(C(F)(F)F)c1)c1ccc(F)cc1 (centres unmarked) [Example 41, 1-(3,5-bis(trifluoromethyl)benzyloxy)-4-amino-2-(4-fluorophenyl)butan-2-ol] |
| 1 to 100 nM | 1 to 100 nM | NCCC(O)(COCc1cc(C(F)(F)F)cc(C(F)(F)F)c1)c1ccc(Cl)cc1 (centres unmarked) [Example 42, 1-(3,5-bis(trifluoromethyl)benzyloxy)-4-amino-2-(4-chlorophenyl)butan-2-ol] |
| 1 to 100 nM | 1 to 100 nM | Cc1ccccc1C(O)(CCN)COCc1cc(C(F)(F)F)cc(C(F)(F)F)c1 (centres unmarked) [Example 43, 1-(3,5-bis(trifluoromethyl)benzyloxy)-4-amino-2-o-tolylbutan-2-ol] |
| 1 to 100 nM | 1 to 100 nM | NCCC(O)(COCc1cc(C(F)(F)F)cc(C(F)(F)F)c1)c1cccs1 (centres unmarked) [Example 44, 1-(3,5-bis(trifluoromethyl)benzyloxy)-4-amino-2-(thiophen-2-yl)butan-2-ol] |
| 1 to 100 nM | 1 to 100 nM | COc1ccccc1C(O)(CCN)COCc1cc(C(F)(F)F)cc(C(F)(F)F)c1 (centres unmarked) [Example 45, 1-(3,5-bis(trifluoromethyl)benzyloxy)-4-amino-2-(2-methoxyphenyl)butan-2-ol] |
| > 300 nM | 1 to 100 nM | COc1ccc(C(O)(CCN)COCc2cc(C(F)(F)F)cc(C(F)(F)F)c2)c(OC)c1 (centres unmarked) [Example 46, 1-(3,5-bis(trifluoromethyl)benzyloxy)-4-amino-2-(2,4-dimethoxyphenyl)butan-2-ol] |
| > 300 nM | > 300 nM | NCCC(O)(COCc1ccccc1)c1ccccc1 (centres unmarked) [Example 47, 4-amino-1-(benzyloxy)-2-phenylbutan-2-ol] |
| > 300 nM | 1 to 100 nM | NCCC(O)(COCc1cccc(Br)c1)c1ccccc1 (centres unmarked) [Example 48, 1-(3-bromobenzyloxy)-4-amino-2-phenylbutan-2-ol] |
| > 300 nM | > 300 nM | NCCC(O)(COCc1ccc(OC(F)(F)F)cc1)c1ccccc1 (centres unmarked) [Example 49, 1-(4-(trifluoromethoxy)benzyloxy)-4-amino-2-phenylbutan-2-ol] |
| > 300 nM | 1 to 100 nM | NCCC(O)(COCc1ccccc1Cl)c1ccccc1 (centres unmarked) [Example 50, 1-(2-chlorobenzyloxy)-4-amino-2-phenylbutan-2-ol] |
| 1 to 100 nM | 1 to 100 nM | NCCC(O)(COCc1cc(F)cc(C(F)(F)F)c1)c1ccccc1 (centres unmarked) [Example 51, 1-(3-fluoro-5-(trifluoromethyl)benzyloxy)-4-amino-2-phenylbutan-2-ol] |
| > 300 nM | 1 to 100 nM | NCCC(O)(COCc1ccccc1Br)c1ccccc1 (centres unmarked) [Example 52, 1-(2-bromobenzyloxy)-4-amino-2-phenylbutan-2-ol] |
| 1 to 100 nM | 1 to 100 nM | Cc1cc(C)cc(COCC(O)(CCN)c2ccccc2)c1 (centres unmarked) [Example 53, 1-(3,5-dimethylbenzyloxy)-4-amino-2-phenylbutan-2-ol] |
| > 300 nM | 1 to 100 nM | NCCC(O)(COCc1ccccc1C(F)(F)F)c1ccccc1 (centres unmarked) [Example 54, 1-(2-(trifluoromethyl)benzyloxy)-4-amino-2-phenylbutan-2-ol] |
| 100 to 300 nM | 100 to 300 nM | NCCC(O)(COCc1cccc(C(F)(F)F)c1)c1ccccc1 (centres unmarked) [Example 55, 1-(3-(trifluoromethyl)benzyloxy)-4-amino-2-phenylbutan-2-ol] |
